Results from ChEMBL document CHEMBL1134339, “New 1-aryl-3-(4-arylpiperazin-1-yl)propane derivatives, with dual action at 5-HT1A serotonin receptors and serotonin transporter, as a new class of antidepressants” (J Med Chem, 2001).

Legend:
[1] = target: T1, 5-hydroxytryptamine receptor 1A (Rattus norvegicus, UniProt P19327); test: Binding affinity to 5-hydroxytryptamine 1A receptor (5-HT 1A receptor, serotonin receptor) from rat cortex using [3H]8-OH-DPAT as radioligand
T1 sequence (P19327 whole entry): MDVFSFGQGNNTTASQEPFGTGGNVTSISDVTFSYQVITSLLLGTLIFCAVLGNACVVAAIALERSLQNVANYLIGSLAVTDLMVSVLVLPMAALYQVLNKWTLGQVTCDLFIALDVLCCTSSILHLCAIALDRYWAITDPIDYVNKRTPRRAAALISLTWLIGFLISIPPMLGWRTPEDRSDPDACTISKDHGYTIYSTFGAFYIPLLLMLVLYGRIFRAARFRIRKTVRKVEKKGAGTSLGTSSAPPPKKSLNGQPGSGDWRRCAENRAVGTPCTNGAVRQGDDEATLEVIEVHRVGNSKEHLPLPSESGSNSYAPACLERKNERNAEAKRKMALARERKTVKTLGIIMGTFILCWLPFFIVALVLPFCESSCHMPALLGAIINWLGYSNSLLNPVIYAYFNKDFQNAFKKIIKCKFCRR

[2] = target: 5-hydroxytryptamine receptor 2A (Rattus norvegicus, UniProt P14842); test: Affinity at 5-hydroxytryptamine 2 receptor from rat frontal cortex using [3H]ketanserin as radioligand (For ketanserin = Ki(nM)=0.7+/-0.09); format: tissue-based
Chain of 5-hydroxytryptamine receptor 2A (P14842 whole entry): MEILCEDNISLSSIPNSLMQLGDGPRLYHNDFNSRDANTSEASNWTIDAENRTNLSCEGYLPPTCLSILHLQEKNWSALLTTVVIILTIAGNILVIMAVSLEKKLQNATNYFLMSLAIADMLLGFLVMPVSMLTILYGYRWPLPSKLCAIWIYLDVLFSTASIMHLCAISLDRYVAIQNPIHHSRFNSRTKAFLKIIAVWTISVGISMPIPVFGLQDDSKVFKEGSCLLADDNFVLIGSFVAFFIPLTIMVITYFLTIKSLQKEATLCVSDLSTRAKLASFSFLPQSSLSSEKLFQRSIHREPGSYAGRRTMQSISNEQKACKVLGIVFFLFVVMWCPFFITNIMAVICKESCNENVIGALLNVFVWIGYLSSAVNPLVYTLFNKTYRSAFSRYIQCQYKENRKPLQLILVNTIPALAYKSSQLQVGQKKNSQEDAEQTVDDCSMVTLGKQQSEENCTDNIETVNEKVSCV

[3] = target: T2, Adrenergic receptor alpha-2 (Rattus norvegicus, UniProt P22086+P19328+P22909); test: Affinity towards alpha-2 adrenoceptor from rat cortex using [3H]-clonidine as radioligand (For clonidine Ki(nM)= […]+/-[…])
T2 sequence (P22086 whole entry): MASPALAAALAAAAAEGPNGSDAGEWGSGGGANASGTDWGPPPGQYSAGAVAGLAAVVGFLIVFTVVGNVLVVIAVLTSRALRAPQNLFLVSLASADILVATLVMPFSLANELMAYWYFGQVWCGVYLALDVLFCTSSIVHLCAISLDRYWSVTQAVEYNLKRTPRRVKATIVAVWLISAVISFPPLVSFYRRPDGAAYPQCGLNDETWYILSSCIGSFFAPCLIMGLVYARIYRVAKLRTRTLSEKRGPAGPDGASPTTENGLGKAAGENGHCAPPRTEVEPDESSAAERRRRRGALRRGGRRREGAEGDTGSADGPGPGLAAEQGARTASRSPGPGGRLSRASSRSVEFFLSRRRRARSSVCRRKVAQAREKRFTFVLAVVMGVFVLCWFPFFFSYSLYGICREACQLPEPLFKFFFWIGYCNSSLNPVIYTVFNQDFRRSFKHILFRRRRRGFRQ
T2 sequence (P19328 whole entry): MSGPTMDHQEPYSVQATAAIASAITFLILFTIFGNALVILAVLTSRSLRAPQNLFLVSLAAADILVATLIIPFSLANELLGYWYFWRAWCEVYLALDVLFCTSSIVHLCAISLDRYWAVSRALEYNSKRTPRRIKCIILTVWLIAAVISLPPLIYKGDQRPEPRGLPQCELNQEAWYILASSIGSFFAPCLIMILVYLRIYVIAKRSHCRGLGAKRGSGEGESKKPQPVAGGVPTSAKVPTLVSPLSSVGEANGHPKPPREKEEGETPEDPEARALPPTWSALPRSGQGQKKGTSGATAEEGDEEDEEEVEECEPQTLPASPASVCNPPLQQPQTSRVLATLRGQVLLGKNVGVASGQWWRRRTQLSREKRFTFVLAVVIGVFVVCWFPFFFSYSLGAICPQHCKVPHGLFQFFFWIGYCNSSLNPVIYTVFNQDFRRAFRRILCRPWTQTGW
T2 sequence (P22909 whole entry): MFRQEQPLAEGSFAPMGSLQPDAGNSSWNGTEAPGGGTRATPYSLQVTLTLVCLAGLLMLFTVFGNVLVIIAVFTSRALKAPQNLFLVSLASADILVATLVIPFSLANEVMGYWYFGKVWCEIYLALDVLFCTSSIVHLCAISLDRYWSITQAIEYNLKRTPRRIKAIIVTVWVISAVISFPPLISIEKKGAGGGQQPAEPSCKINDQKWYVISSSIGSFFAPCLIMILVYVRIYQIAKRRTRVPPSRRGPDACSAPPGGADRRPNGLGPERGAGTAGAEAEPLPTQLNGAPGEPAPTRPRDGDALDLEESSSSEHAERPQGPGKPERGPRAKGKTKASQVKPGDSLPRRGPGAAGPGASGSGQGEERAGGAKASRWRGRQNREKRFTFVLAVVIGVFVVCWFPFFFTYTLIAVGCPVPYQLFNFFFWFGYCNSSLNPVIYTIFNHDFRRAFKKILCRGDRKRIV

D(2) dopamine receptor = D(2) dopamine receptor (Rattus norvegicus, UniProt P61169); test: Affinity at dopamine D2 receptor from rat striatum using [3H]spiroperidol as radioligand (For haloperidol Ki(nM)= 1.5+/-1.2); format: tissue-based
Chain of D(2) dopamine receptor (P61169 whole entry): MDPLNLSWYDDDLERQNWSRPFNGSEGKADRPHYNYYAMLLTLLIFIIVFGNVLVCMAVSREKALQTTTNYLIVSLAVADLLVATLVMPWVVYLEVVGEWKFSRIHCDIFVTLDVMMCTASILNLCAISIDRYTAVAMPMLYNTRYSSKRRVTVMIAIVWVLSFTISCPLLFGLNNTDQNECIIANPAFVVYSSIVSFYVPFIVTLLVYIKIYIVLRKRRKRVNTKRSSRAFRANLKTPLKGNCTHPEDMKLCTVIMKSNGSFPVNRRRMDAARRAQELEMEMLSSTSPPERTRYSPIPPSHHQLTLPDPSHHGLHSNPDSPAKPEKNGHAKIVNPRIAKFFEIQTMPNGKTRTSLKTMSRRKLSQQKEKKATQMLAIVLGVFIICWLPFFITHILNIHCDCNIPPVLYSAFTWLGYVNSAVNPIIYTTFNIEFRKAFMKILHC

Mus musculus [4] = test: Antidepressant-like activity in the forced swimming test (FST) in mice at 0.1 mg/kg dose; Antidepressant like activity; format: functional
Mus musculus [5] = test: Antidepressant-like activity in the forced swimming test (FST) in mice at 1 mg/kg dose; Antidepressant like activity; format: functional
Mus musculus [6] = test: Antidepressant-like activity in the forced swimming test (FST) in mice at 10 mg/kg dose; Antidepressant like activity; format: functional
Mus musculus [7] = test: Time-dependent effect on 8-OH-DPAT-induced hypothermia (change in body temperature) after 30 min, in mice at 5 mg/kg dose; format: functional
Mus musculus [8] = test: Time-dependent effect on 8-OH-DPAT-induced hypothermia (change in body temperature) after 60 min, in mice at 0.5 mg/kg dose; format: functional
Mus musculus [9] = test: Time-dependent effect on 8-OH-DPAT-induced hypothermia (change in body temperature) after 60 min, in mice at 5 mg/kg dose; format: functional
[10] = target: Muscarinic acetylcholine receptor; test: Affinity at muscarinic receptor from rat cortex using [3H]-QNB as radioligand (For atropine Ki(nM)= 3.5+/-0.3)
[11] = target: Sodium-dependent serotonin transporter (Rattus norvegicus, UniProt P31652); test: Binding affinity towards Serotonin transporter from rat cortex measured using [3H]paroxetine; settings: read-out: Ki
Chain of Sodium-dependent serotonin transporter (P31652 whole entry): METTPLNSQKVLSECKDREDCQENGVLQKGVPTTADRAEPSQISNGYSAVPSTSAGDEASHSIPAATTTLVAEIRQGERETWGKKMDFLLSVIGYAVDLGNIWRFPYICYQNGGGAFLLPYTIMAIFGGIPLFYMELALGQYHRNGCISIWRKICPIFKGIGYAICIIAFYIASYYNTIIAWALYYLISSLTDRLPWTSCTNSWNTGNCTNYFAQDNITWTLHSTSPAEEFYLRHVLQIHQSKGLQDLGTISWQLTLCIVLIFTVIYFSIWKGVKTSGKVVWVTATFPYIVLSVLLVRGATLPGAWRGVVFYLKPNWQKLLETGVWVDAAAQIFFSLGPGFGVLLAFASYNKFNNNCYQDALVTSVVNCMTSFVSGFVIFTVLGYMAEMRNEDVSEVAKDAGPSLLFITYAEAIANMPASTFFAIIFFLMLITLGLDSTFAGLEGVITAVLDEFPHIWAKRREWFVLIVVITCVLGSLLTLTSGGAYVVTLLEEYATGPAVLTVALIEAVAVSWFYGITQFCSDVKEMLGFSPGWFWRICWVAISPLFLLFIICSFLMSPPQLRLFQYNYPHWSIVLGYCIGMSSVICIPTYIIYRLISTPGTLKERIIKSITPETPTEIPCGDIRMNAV

Adrenergic receptor beta = Adrenergic receptor beta (Rattus norvegicus, UniProt P18090+P10608+P26255)

Compound	Ki ([1]; read-out: Ki) [nM]	Ki [2] [nM]	Ki [3] [nM]	Ki (D(2) dopamine receptor) [nM]	Activity (Mus musculus [4]) [%]	Activity (Mus musculus [5]) [%]	Activity (Mus musculus [6]) [%]	Temperature change (Mus musculus [7]) [°C]	Temperature change (Mus musculus [8]) [°C]	Temperature change (Mus musculus [9]) [°C]	Ki [10] [nM]	Ki [11] [nM]	Ki (Adrenergic receptor beta) [nM]	Ki [1] [nM]
COc1ccccc1N1CCN(CCC(O)c2csc3ccccc23)CC1 (stereo not given)	20	250	2000	150	35	33	1	-2.5	-0.63	-1.16	> 5000	20	750	
COc1ccccc1N1CCN(CCC(Oc2cccc3ccccc23)c2ccsc2)CC1 (stereo not given)	180	> 5000	5000	2500	0	48	49		-0.52	-1.22	> 5000	150	> 5000	
COc1ccccc1N1CCN(CCC(=O)c2csc3ccccc23)CC1								<-1.47	<-0.47	-1.27		105		44
